# Assays:
# [1] = system: PDE4 (cAMP-specific) in the cytosol of human polymorphonuclear leukocytes (PMNL); test: PDE4 inhibition, Method A (radioactive PDE assay after Thompson et al.); format: biochemical; details: cAMP substrate, motapizone 1 μM
# Procedure: (§1) The PDE activity was determined according to Thompson et al. (Adv Cycl Nucl Res 10: 69-92, 1979) with some modifications (Bauer and Schwabe, Naunyn-Schmiedeberg's Arch Pharmacol 311: 193-198, 1980). The test samples contained 20 mM Tris (pH 7.4), 5 mM MgCl2, 0.5 μM CAMP or cGMP, [^3H]cAMP or [^3H]cGMP (about 30 000 cpm/sample), the PDE isoenzyme-specific additives described in greater detail below, the indicated concentrations of inhibitor and an aliquot of the enzyme solution in a total sample volume of 200 μl. Dilution series of the compounds according to the invention were prepared in DMSO and further diluted in the samples [1:100 (v/v)], to give the desired end concentration of the inhibitors at a DMSO concentration of 1% (v/v), which for its part has only a minute effect on PDE activity.
# (§2) After preincubation at 37° C. for 5 minutes, the reaction was started by addition of the substrate (CAMP or cGMP). The samples were incubated at 37° C. for a further 15 min. The reaction was terminated by addition of 50 μl 0.2 N HCl. After cooling on ice for 10 minutes and addition of 25 μg 5′-nucleotidase (snake venom from Crotalus atrox), the mixture was again incubated at 37° C. for 10 min and the samples were then applied to QAE Sephadex A-25 columns (sample volume 1 ml). The columns were eluted with 2 ml of 30 mM ammonium formate (pH 6.0). The radioactivity of the eluate was measured and corrected by the corresponding blank values (measured in the presence of denatured protein); the blank values were less than 5% of the total radioactivity. In no case did the proportion of hydrolyzed nucleotide exceed 30% of the original substrate concentration.
# PDE4 (cAMP-specific) was investigated in the cytosol of human polymorphonuclear leukocytes (PMNL) [isolated from leukocyte concentrates, see Schudt et al., Arch Pharmacol 1991: 344, 682-690] using cAMP as substrate. The PDE3 inhibitor motapizone (1 μM) was used to suppress the PDE3 activity emanating from contaminated platelets.
# (§3) The IC50 values were determined from the concentration-inhibition curves by nonlinear regression.
# (§4) The inhibitory values of the compounds 1-16 and 22-24 have been determined according to Method A. The inhibitory values of the compounds 17-21 have been determined according to Method B.
# [2] = molecular target: T1, PDE3 (cGMP-inhibited) in homogenates of human platelets (Homo sapiens, UniProt Q14432); test: PDE3 inhibition, Method A (radioactive PDE assay after Thompson et al.); format: biochemical; details: read-out: PDE3 [−log IC50, mol/l] (converted)
# T1 construct: investigated in homogenates of human platelets; from tissue; host or cells: homogenates of human platelets
# Procedure: as §1, §2
# PDE3 (cGMP-inhibited) was investigated in homogenates of human platelets (see Schudt et al., Biochem Pharmacol 1991: 42, 153-162) using CAMP or cGMP as substrate.
# as §3, §4
# T1 sequence (Q14432 whole entry): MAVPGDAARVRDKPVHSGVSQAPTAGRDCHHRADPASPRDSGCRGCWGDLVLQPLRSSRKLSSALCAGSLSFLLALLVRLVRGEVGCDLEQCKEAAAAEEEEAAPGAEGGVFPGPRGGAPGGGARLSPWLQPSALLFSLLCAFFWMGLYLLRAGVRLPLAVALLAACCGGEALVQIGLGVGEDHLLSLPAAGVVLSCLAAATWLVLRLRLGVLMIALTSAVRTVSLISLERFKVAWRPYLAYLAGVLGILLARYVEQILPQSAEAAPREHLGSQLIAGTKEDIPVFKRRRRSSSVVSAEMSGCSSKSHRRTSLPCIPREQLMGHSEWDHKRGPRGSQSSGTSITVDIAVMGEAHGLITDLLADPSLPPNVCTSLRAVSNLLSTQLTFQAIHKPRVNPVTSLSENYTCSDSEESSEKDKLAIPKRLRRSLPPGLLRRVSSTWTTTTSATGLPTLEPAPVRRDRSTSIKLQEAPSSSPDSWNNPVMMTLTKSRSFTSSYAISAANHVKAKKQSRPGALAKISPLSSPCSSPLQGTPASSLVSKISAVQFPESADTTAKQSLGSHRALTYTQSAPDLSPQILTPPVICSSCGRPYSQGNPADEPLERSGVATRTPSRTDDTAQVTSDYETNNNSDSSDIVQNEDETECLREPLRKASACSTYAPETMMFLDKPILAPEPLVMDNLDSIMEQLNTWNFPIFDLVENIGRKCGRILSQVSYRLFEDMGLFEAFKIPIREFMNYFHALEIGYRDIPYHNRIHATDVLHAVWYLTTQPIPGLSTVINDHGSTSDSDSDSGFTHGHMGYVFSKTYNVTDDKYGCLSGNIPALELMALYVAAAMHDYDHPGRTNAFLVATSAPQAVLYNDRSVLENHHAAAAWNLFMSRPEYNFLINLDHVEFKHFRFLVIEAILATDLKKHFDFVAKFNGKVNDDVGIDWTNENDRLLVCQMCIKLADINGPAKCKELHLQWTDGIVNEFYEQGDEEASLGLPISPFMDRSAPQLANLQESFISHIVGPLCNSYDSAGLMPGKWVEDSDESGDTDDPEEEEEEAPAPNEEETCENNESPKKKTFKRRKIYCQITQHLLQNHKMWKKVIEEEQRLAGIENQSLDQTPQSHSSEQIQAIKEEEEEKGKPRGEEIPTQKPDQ
Compound,"PDE4 [−log IC50, mol/l] [1]",IC50 [2]
"CCOc1cc2c(cc1OC)C(c1ccc(C(=O)N(C)CCOC)cc1)=N[C@@H]1CCN(C)C[C@H]21.Cl [Compound 15, 4-((4aR,10bS)-9-Ethoxy-8-methoxy-2-methyl-1,2,3,4,4a,10b-hexahydro-benzo [c][1,6]naphthyridin-6-yl)-N-(2-methoxy-ethyl)-N-methyl-benzamide; hydrochloride]",8.0 mol/l,251 nM
"CCOc1cc2c(cc1OC)C(c1ccc(C(=O)N(C(C)C)[C@H](C)COCc3ccccc3)cc1)=N[C@@H]1CCN(C)C[C@H]21 [Compound 8, N—((R)-2-Benzyloxy-1-methyl-ethyl)-4-((4aR,10bS)-9-ethoxy-8-methoxy-2-methyl-1,2,3,4,4a,10b-hexahydro-benzo[c][1,6]naphthyridin-6-yl)-N-isopropyl-benzamide]",9.8 mol/l,31.6 nM
"CCOc1cc2c(cc1OC)C(c1ccc(C(=O)NCCOC)cc1)=N[C@@H]1CCN(C)C[C@H]21.Cl [Compound 14, 4-((4aR,10bS)-9-Ethoxy-8-methoxy-2-methyl-1,2,3,4,4a,10b-hexahydro-benzo [c][1,6]naphthyridin-6-yl)-N-(2-methoxy-ethyl)-benzamide; hydrochloride]",7.8 mol/l,1000 nM
"CCOc1cc2c(cc1OC)C(c1ccc(C(=O)N(C(C)C)[C@@H](C)COCc3ccccc3)cc1)=N[C@@H]1CCN(C)C[C@H]21 [Compound 9, N—((S)-2-Benzyloxy-1-methylethyl)-4-((4aR,10bS)-9-ethoxy-8-methoxy-2-methyl-1,2,3,4,4a,10b-hexahydro-benzo[c][1,6]naphthyridin-6-yl)-N-isopropyl-benzamide]",9.8 mol/l,15.8 nM
"CCCCOCCCNC(=O)c1ccc(C2=N[C@@H]3CCN(C)C[C@@H]3c3cc(OCC)c(OC)cc32)cc1.Cl [Compound 16, N-(3-Butoxy-propyl)-4-((4aR,10bS)-9-ethoxy-8-methoxy-2-methyl-1,2,3,4,4a,10b-hexahydro-benzo [c][1,6]naphthyridin-6-yl)-benzamide; hydrochloride]",8.5 mol/l,398 nM
"CCOc1cc2c(cc1OC)C(c1ccc(C(=O)N(CCCOC)C3CCCCC3)cc1)=N[C@@H]1CCN(C)C[C@H]21.Cl [Compound 13, N-Cyclohexyl-4-((4aR,10bS)-9-ethoxy-8-methoxy-2-methyl-1,2,3,4,4a,10b-hexahydro-benzo [c][1,6]naphthyridin-6-yl)-N-(3-methoxy-propyl)-benzamide; hydrochloride]",9.9 mol/l,200 nM
"CCOc1cc2c(cc1OC)C(c1ccc(C(=O)NC(CC)COC)cc1)=N[C@@H]1CCN(C)C[C@H]21.Cl (mixture of isomers) [Compound 3, 4-((4aR,10bS)-9-Ethoxy-8-methoxy-2-methyl-1,2,3,4,4a,10b-hexahydro-benzo [c][1,6]naphthyridin-6-yl)-N-(1(rac)-methoxymethyl-propyl)-benzamide; hydrochloride]",9.0 mol/l,1000 nM
"CCOc1cc2c(cc1OC)C(c1ccc(C(=O)N(CC)CCOC)cc1)=N[C@@H]1CCN(C)C[C@H]21.Cl [Compound 5, 4-((4aR,10bS)-9-Ethoxy-8-methoxy-2-methyl-1,2,3,4,4a,10b-hexahydro-benzo [c][1,6]naphthyridin-6-yl)-N-ethyl-N-(2-methoxy-ethyl)-benzamide; hydrochloride]",8.9 mol/l,200 nM
"CCOc1cc2c(cc1OC)C(c1ccc(C(=O)N(C(C)C)[C@@H](C)COC)cc1)=N[C@@H]1CCN(C)C[C@H]21.Cl [Compound 11, 4-((4aR,10bS)-9-Ethoxy-8-methoxy-2-methyl-1,2,3,4,4a,10b-hexahydro-benzo [c][1,6]naphthyridin-6-yl)-N-isopropyl-N-((S)-2-methoxy-1-methyl-ethyl)-benzamide; hydrochloride]",9.0 mol/l,79.4 nM
